One assay has as its target T1, Phospholipase A2 group V (Homo sapiens, UniProt P39877).
T1 sequence (P39877 whole entry): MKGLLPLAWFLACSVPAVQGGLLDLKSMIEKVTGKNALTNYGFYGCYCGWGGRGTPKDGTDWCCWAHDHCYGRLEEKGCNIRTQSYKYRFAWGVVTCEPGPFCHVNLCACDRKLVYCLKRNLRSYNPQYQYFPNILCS
Put plainly: sPLA2V Activity Assay. The conditions noted are these: pH 7.5; 25 °C. The method, then: Briefly, sn-2ester bond of the substrate 1,2-bis(heptanoylthio)-glycerophosphocholine was hydrolyzed by PLA2-V followed by the exposure of free thiols. These thiols activated the conversion of DTNB (5,5–dithio-bis-(2-nitrobenzoic acid) to 2-nitro-5-thiobenzoic acid, which was photometrically detected at 405 nm. After this, the assay proceeded in an aqueous buffer solution (pH 7.5) containing KCl (94 mM), CaCl2 (9 mM), Tris (24 mM), and Triton-X 100 ([…]). Before the assay was started, substrate and PLA2-V was resuspended in assay buffer whereas DTNB was dissolved in an aqueous solution of Tris-HCl (pH 8) yielding an enzyme and DTNB concentrations of 100 ng/mL and 87 BM, respectively. 96-well micro titre plates containing substrate solution, DTNB, and the respective test substance were used to carry out assays at room temperature.

Assay [1] concerns the target T2, Prostaglandin G/H synthase 1 (Ovis aries, UniProt P05979).
T2 sequence (P05979 whole entry): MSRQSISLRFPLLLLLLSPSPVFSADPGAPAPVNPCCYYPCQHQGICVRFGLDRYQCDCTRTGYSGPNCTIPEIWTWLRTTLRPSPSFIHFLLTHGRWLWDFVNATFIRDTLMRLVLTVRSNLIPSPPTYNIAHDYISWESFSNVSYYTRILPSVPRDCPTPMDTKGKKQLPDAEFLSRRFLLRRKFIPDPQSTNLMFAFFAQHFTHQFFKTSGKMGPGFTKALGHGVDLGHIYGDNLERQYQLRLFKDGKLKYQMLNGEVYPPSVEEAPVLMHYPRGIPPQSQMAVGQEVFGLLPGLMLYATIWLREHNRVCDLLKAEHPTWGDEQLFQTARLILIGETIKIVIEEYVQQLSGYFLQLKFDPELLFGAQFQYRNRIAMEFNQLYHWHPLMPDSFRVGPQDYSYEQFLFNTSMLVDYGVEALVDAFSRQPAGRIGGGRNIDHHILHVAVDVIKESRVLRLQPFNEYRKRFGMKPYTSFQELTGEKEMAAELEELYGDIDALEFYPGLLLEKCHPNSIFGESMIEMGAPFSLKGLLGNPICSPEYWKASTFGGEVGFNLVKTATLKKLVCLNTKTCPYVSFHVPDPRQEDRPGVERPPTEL
Put plainly: Cyclooxygenase Assay. To be noted: pH 8; 25 °C. The method, then: (§1) 100 mM Tris HCl buffer, pH 8.0 containing 1 µM heme and COX-1 (ovine) or COX-2(human recombinant), which was preincubated for 10 min in a water bath at 37 °C was used for reaction mixture preparation. Addition of 10 µL arachidonic acid to the reaction mixture (final concentration 100 µM) was used to initiate reaction. After 2 min reaction was stopped by addition of 1 M HCl. PGE2 in the reaction mixture was determined using ELISA method. 100 mM potassium phosphate buffer (pH 7.4) was used to dilute the DMSO stock solutions of the test compounds to the desired concentration. This reaction mixture was transferred to a 96-well platethat was precoated with a mouse anti-rabbit IgG. Tracer prostaglandin acetylcholine esterase and primary antibody (mouse anti PGE2) were also added to the plates followed by overnight incubation at room temperature. After overnightincubation, reaction mixtures were pipetted out and the wells were washed with 10 mM potassium phosphate buffer containing 0.05% Twe

Assay [2] addresses T3, Prostaglandin G/H synthase 2 (Homo sapiens, UniProt P35354).
T3 sequence (P35354 whole entry): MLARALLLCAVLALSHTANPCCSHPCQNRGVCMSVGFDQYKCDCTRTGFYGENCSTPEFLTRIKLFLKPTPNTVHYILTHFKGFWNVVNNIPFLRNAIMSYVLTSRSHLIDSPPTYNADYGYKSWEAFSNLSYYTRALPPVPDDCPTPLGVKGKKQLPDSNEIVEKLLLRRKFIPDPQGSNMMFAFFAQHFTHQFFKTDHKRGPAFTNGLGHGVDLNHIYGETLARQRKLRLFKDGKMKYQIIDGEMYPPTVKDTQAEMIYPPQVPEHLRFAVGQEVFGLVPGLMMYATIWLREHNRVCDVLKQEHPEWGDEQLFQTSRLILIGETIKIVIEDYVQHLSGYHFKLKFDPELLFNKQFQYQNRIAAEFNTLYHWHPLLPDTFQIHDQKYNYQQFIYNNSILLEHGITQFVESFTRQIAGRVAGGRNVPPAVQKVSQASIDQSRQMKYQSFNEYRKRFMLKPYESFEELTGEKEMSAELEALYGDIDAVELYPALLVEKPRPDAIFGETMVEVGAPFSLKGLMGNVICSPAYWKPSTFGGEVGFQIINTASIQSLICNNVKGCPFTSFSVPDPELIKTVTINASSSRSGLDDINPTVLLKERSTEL
Put plainly: Cyclooxygenase Assay. The conditions noted are these: pH 8; 25 °C. The method, then:
as §1

Take `CN(C)c1ccc(/C=C/C(=O)c2ccc3c(c2)OCCO3)c2ccccc12` [1-(2,3-Dihydro-benzo[1,4]dioxin-6-yl)-3-(4-dimethylamino-naphthalen-1-yl)-propenone (4)]: the IC50 at Phospholipase A2 group V was determined as 32.2 µM; in assay [1] it was 7.06 µM; in assay [2] it was 24.5 µM.

With `COc1cc2ccccc2c(/C=C/C(=O)c2cc3ccccc3o2)c1OC` [1-Benzofuran-2-yl-3-(2,3-dimethoxy-naphthalen-1-yl)-propenone (3)], the IC50 stood at 12.7 µM at Phospholipase A2 group V, 12.5 µM in assay [1] and 12.2 µM in assay [2].

As for `COc1ccc2c(OC)ccc(/C=C/C(=O)c3cc4ccccc4o3)c2c1` [1-Benzofuran-2-yl-3-(4,7-dimethoxy-naphthalen-1-yl)-propenone (2)], the IC50 against Phospholipase A2 group V worked out at 27.8 µM; in assay [1] it was 15 µM; in assay [2], 19.1 µM.

As for `COc1cc2ccccc2c(C2CC(c3ccc4c(c3)OCCO4)=NN2C(N)=S)c1OC` (stereo unspecified) [3-(2,3-Dihydro-benzo[1,4]dioxin-6-yl)-5-(2,3-dimethoxy-naphthalen-1-yl)-4,5-dihydro-pyrazole-1-carbothioic acid amide (5a)], the IC50 amounted to 19.2 µM against Phospholipase A2 group V, 3.42 µM in assay [1] and 17.8 µM in assay [2].

Consider `COc1cc2ccccc2c(C2CC(c3ccc4c(c3)OCCO4)=NN2C(=O)Nc2ccc(Cl)cc2)c1OC` (stereo unspecified) [3-(2,3-Dihydro-benzo[1,4]dioxin-6-yl)-5-(2,3-dimethoxy-naphthalen-1-yl)-4,5-dihydropyrazole-1-carboxylic acid (4-chloro-phenyl)-amide (5b)], for which the IC50 at Phospholipase A2 group V was 17.3 µM; in assay [1] it was 1.17 µM; in assay [2] it was 12.3 µM.

In the case of `COc1ccc2c(OC)ccc(C3CC(c4ccc5c(c4)OCCO5)=NN3C(N)=S)c2c1` (stereo unspecified) [3-(2,3-Dihydro-benzo[1,4]dioxin-6-yl)-5-(4,7-dimethoxy-naphthalen-1-yl)-4,5-dihydro-pyrazole-1-carbothioic acid amide (6a)], the IC50 against Phospholipase A2 group V was determined as 7.12 µM; in assay [1], 2.82 µM; in assay [2] it was 12.6 µM.

Turning to `COc1ccc2c(OC)ccc(C3CC(c4ccc5c(c4)OCCO5)=NN3C(=O)Nc3ccc(Cl)cc3)c2c1` (stereo unspecified) [3-(2,3-Dihydro-benzo[1,4]dioxin-6-yl)-5-(4,7-dimethoxy-naphthalen-1-yl)-4,5-dihydropyrazole-1-carboxylic acid (4-chloro-phenyl)-amide (6b)], the IC50 came out at 5.12 µM on Phospholipase A2 group V, 0.94 µM in assay [1] and 12 µM in assay [2].

Regarding `CN(C)c1ccc(C2CC(c3ccc4c(c3)OCCO4)=NN2C(N)=S)c2ccccc12` (stereo unspecified) [3-(2,3-Dihydro-benzo[1,4]dioxin-6-yl)-5-(4-dimethylamino-naphthalen-1-yl)-4,5-dihydropyrazole-1-carbothioic acid amide (4a)], the IC50 at Phospholipase A2 group V worked out at 22.2 µM; in assay [1], 1.12 µM; in assay [2] it was 13.2 µM.

On to `CN(C)c1ccc(C2CC(c3ccc4c(c3)OCCO4)=NN2C(=O)Nc2ccc(Cl)cc2)c2ccccc12` (stereo unspecified) [3-(2,3-Dihydro-benzo[1,4]dioxin-6-yl)-5-(4-dimethylamino-naphthalen-1-yl)-4,5-dihydropyrazole-1-carboxylic acid (4-chloro-phenyl)-amide (4b)], for which the IC50 against Phospholipase A2 group V came out at 17.2 µM; in assay [1], 0.44 µM; in assay [2] it was 9.72 µM.

In the case of `COc1cc2ccccc2c(C2CC(c3cc4ccccc4o3)=NN2C(N)=S)c1OC` (stereo unspecified) [3-Benzofuran-2-yl-5-(2,3-dimethoxy-naphthalen-1-yl)-4,5-dihydro-pyrazole-1-carbothioic acid amide (3a)], the figures for the IC50 (at Phospholipase A2 group V; in assay [1]; in assay [2]) were 9.17 µM, 8.06 µM and 10.3 µM, respectively.

Turning to `COc1cc2ccccc2c(C2CC(c3cc4ccccc4o3)=NN2C(=O)Nc2ccc(Cl)cc2)c1OC` (stereo unspecified) [3-Benzofuran-2-yl-5-(2,3-dimethoxy-naphthalen-1-yl)-4,5-dihydro-pyrazole-1-carboxylic acid(4-chloro-phenyl)-amide (3b)], the values for the IC50 (against Phospholipase A2 group V; in assay [1]; in assay [2]) were 8.46 µM, 0.99 µM and 5.02 µM, respectively.

For the compound `COc1ccc2c(OC)ccc(C3CC(c4cc5ccccc5o4)=NN3C(N)=S)c2c1` (stereo unspecified) [3-Benzofuran-2-yl-5-(4,7-dimethoxy-naphthalen-1-yl)-4,5-dihydro-pyrazole-1-carbothioic acid amide (2a)], the IC50 against Phospholipase A2 group V was 21.1 µM; in assay [1] it was 7.22 µM; in assay [2] it was 12.3 µM.

For `COc1ccc2c(OC)ccc(C3CC(c4cc5ccccc5o4)=NN3C(=O)Nc3ccc(Cl)cc3)c2c1` (stereo unspecified) [3-Benzofuran-2-yl-5-(4,7-dimethoxy-naphthalen-1-yl)-4,5-dihydro-pyrazole-1-carboxylic acid(4-chloro-phenyl)-amide (2b)], the values for the IC50 (at Phospholipase A2 group V; in assay [1]; in assay [2]) were 14.5 µM, 2.14 µM and 11.1 µM, respectively.

Regarding `CN(C)c1ccc(C2CC(c3cc4ccccc4o3)=NN2C(N)=S)c2ccccc12` (stereo unspecified) [3-Benzofuran-2-yl-5-(4-dimethylamino-naphthalen-1-yl)-4,5-dihydro-pyrazole-1-carbothioic acid amide (1a)], the IC50 on Phospholipase A2 group V was 35.4 µM; in assay [1], 4.53 µM; in assay [2] it was 14.5 µM.

As to `CN(C)c1ccc(C2CC(c3cc4ccccc4o3)=NN2C(=O)Nc2ccc(Cl)cc2)c2ccccc12` (stereo unspecified) [3-Benzofuran-2-yl-5-(4-dimethylamino-naphthalen-1-yl)-4,5-dihydro-pyrazole-1-carboxylic acid(4-chloro-phenyl)-amide (1b)], the IC50 is 22.2 µM against Phospholipase A2 group V, 1.87 µM in assay [1] and 9.1 µM in assay [2].

Regarding `C[C@@H]1C[C@H]2[C@@H]3CCC4=CC(=O)C=C[C@]4(C)[C@@]3(F)[C@@H](O)C[C@]2(C)[C@@]1(O)C(=O)CO` [dexamethasone (tetramethyl-rhodamine conjugated )], the midpoint of inhibition against Phospholipase A2 group V, the IC50, lay at 0.62 µM.

(Values after BindingDB's records for doi:10.1111/cbdd.12457 (Universiti Kebangsaan Malaysia, Jalan Raja Muda Abdul Aziz, 2015).)
